Bases are written 5' to 3'; sugars and linkages follow in the same order, as letters with counts (s phosphorothioate, o phosphodiester; PS: all linkages phosphorothioate). C may stand for cytosine or 5-methylcytosine; the collection does not tell. l = locked nucleic acid (LNA); d = 2'-deoxy (DNA)

This data set deals with HIF1A. The experiment in a line: HeLa, 100 nM transfected, 24 h, mean of 3. The settings on record: ASO.
As to “ACTGCCTTCTTAC (sugars l1 d1 l1 d7 l3, PS)”, the caspase activation (% of PBS control) amounted to 257.

Take “ACTGCCTTCTTAC (sugars l1 d1 l1 d8 l2, PS)”: the caspase activation (% of PBS control) came to 191.

In turn, “ACTGCCTTCTTAC (sugars l1 d1 l1 d9 l1, PS)” came in with a caspase activation (% of PBS control) of 188.

Take “ACTGCCTTCTTAC (sugars l1 d1 l2 d6 l3, PS)”: the caspase activation (% of PBS control) was 247.

As to “ACTGCCTTCTTAC (sugars l1 d1 l2 d7 l2, PS)”, the caspase activation (% of PBS control) was 217.

Regarding “ACTGCCTTCTTAC (sugars l1 d1 l2 d8 l1, PS)”, the caspase activation (% of PBS control) stood at 222.

In the case of “ACTGCCTTCTTAC (sugars l1 d2 l1 d6 l3, PS)”, the caspase activation (% of PBS control) amounted to 126.

As to “ACTGCCTTCTTAC (sugars l1 d2 l1 d7 l2, PS)”, the caspase activation (% of PBS control) worked out at 112.

In the case of “ACTGCCTTCTTAC (sugars l1 d2 l1 d8 l1, PS)”, the caspase activation (% of PBS control) stood at 119.

For “ACTGCCTTCTTAC (sugars l1 d9 l1 d1 l1, PS)”, the caspase activation (% of PBS control) turned out to be 140.

For ACTGCCTTCTTAC (sugars l1 d9 l3, PS), the caspase activation (% of PBS control) stood at 140.

Regarding ACTGCCTTCTTAC (sugars l1 d10 l2, PS), the caspase activation (% of PBS control) came to 120.

For the sequence ACTGCCTTCTTAC (sugars l1 d11 l1, PS), the caspase activation (% of PBS control) is 130.

Regarding “ACTGCCTTCTTAC (sugars l2 d1 l1 d6 l3, PS)”, the caspase activation (% of PBS control) came out at 166.

For the sequence “ACTGCCTTCTTAC (sugars l2 d1 l1 d7 l2, PS)”, the caspase activation (% of PBS control) turned out to be 162.

Regarding “ACTGCCTTCTTAC (sugars l2 d1 l1 d8 l1, PS)”, the caspase activation (% of PBS control) turned out to be 177.

For “ACTGCCTTCTTAC (sugars l2 d8 l1 d1 l1, PS)”, the caspase activation (% of PBS control) amounted to 199.

Sequence ACTGCCTTCTTAC (sugars l2 d8 l3, PS) yielded a caspase activation (% of PBS control) of 209.

In turn, ACTGCCTTCTTAC (sugars l2 d9 l2, PS) gave a caspase activation (% of PBS control) of 167.

Sequence ACTGCCTTCTTAC (sugars l2 d10 l1, PS) had a caspase activation (% of PBS control) of 171.

For the sequence “ACTGCCTTCTTAC (sugars l3 d7 l1 d1 l1, PS)”, the caspase activation (% of PBS control) was 383.

For the sequence ACTGCCTTCTTAC (sugars l3 d7 l3, PS), the caspase activation (% of PBS control) was 403.

For ACTGCCTTCTTAC (sugars l3 d8 l2, PS), the caspase activation (% of PBS control) stood at 339.

ACTGCCTTCTTAC (sugars l3 d9 l1, PS) came in with a caspase activation (% of PBS control) of 332.

Sequence “ACTGCCTTCTTAC (sugars l4 d6 l1 d1 l1, PS)” displayed a caspase activation (% of PBS control) of 393.

The sequence ACTGCCTTCTTAC (sugars l4 d6 l3, PS) gave a caspase activation (% of PBS control) of 410.

Turning to ACTGCCTTCTTAC (sugars l4 d7 l2, PS), the caspase activation (% of PBS control) was found to be 406.

Consider ACTGCCTTCTTAC (sugars l4 d8 l1, PS), for which the caspase activation (% of PBS control) came out at 387.

With “ACTGCCTTCTTAC (sugars lddlddddddldl, PS)”, the caspase activation (% of PBS control) worked out at 118.

Turning to “ACTGCCTTCTTAC (sugars ldldddddddldl, PS)”, the caspase activation (% of PBS control) was 208.

Sequence “ACTGCCTTCTTAC (sugars ldllddddddldl, PS)” came in with a caspase activation (% of PBS control) of 217.

Regarding “ACTGCCTTCTTAC (sugars lldlddddddldl, PS)”, the caspase activation (% of PBS control) was determined as 146.

In turn, “CAAGCATCCTGTA (sugars l1 d1 l1 d7 l3, PS)” returned a caspase activation (% of PBS control) of 198.

Sequence “CAAGCATCCTGTA (sugars l1 d1 l1 d8 l2, PS)” showed a caspase activation (% of PBS control) of 171.

As to “CAAGCATCCTGTA (sugars l1 d1 l1 d9 l1, PS)”, the caspase activation (% of PBS control) is 121.

In the case of “CAAGCATCCTGTA (sugars l1 d1 l2 d6 l3, PS)”, the caspase activation (% of PBS control) was determined as 134.

“CAAGCATCCTGTA (sugars l1 d1 l2 d7 l2, PS)” showed a caspase activation (% of PBS control) of 151.

For the sequence “CAAGCATCCTGTA (sugars l1 d1 l2 d8 l1, PS)”, the caspase activation (% of PBS control) is 145.

For “CAAGCATCCTGTA (sugars l1 d2 l1 d6 l3, PS)”, the caspase activation (% of PBS control) turned out to be 97.

“CAAGCATCCTGTA (sugars l1 d2 l1 d7 l2, PS)” had a caspase activation (% of PBS control) of 107.

With “CAAGCATCCTGTA (sugars l1 d2 l1 d8 l1, PS)”, the caspase activation (% of PBS control) worked out at 101.

Turning to “CAAGCATCCTGTA (sugars l1 d9 l1 d1 l1, PS)”, the caspase activation (% of PBS control) stood at 92.1.

The sequence CAAGCATCCTGTA (sugars l1 d9 l3, PS) registered a caspase activation (% of PBS control) of 135.

In the case of CAAGCATCCTGTA (sugars l1 d10 l2, PS), the caspase activation (% of PBS control) was determined as 111.

Take CAAGCATCCTGTA (sugars l1 d11 l1, PS): the caspase activation (% of PBS control) worked out at 100.

“CAAGCATCCTGTA (sugars l2 d1 l1 d6 l3, PS)”: the caspase activation (% of PBS control) worked out at 119.

In turn, “CAAGCATCCTGTA (sugars l2 d1 l1 d7 l2, PS)” gave a caspase activation (% of PBS control) of 133.

Sequence “CAAGCATCCTGTA (sugars l2 d1 l1 d8 l1, PS)” had a caspase activation (% of PBS control) of 123.

In turn, “CAAGCATCCTGTA (sugars l2 d8 l1 d1 l1, PS)” returned a caspase activation (% of PBS control) of 175.

For CAAGCATCCTGTA (sugars l2 d8 l3, PS), the caspase activation (% of PBS control) stood at 250.

CAAGCATCCTGTA (sugars l2 d9 l2, PS) came in with a caspase activation (% of PBS control) of 189.

The sequence CAAGCATCCTGTA (sugars l2 d10 l1, PS) registered a caspase activation (% of PBS control) of 142.

Sequence “CAAGCATCCTGTA (sugars l3 d7 l1 d1 l1, PS)” displayed a caspase activation (% of PBS control) of 302.

As to CAAGCATCCTGTA (sugars l3 d7 l3, PS), the caspase activation (% of PBS control) worked out at 437.

On to CAAGCATCCTGTA (sugars l3 d8 l2, PS), for which the caspase activation (% of PBS control) amounted to 302.

On to CAAGCATCCTGTA (sugars l3 d9 l1, PS), for which the caspase activation (% of PBS control) came to 237.

“CAAGCATCCTGTA (sugars l4 d6 l1 d1 l1, PS)”: the caspase activation (% of PBS control) worked out at 159.

CAAGCATCCTGTA (sugars l4 d6 l3, PS) returned a caspase activation (% of PBS control) of 171.

In the case of CAAGCATCCTGTA (sugars l4 d7 l2, PS), the caspase activation (% of PBS control) was found to be 212.

CAAGCATCCTGTA (sugars l4 d8 l1, PS) returned a caspase activation (% of PBS control) of 194.

Sequence “CAAGCATCCTGTA (sugars lddlddddddldl, PS)” had a caspase activation (% of PBS control) of 100.

In the case of “CAAGCATCCTGTA (sugars ldldddddddldl, PS)”, the caspase activation (% of PBS control) came to 136.

Regarding “CAAGCATCCTGTA (sugars ldllddddddldl, PS)”, the caspase activation (% of PBS control) turned out to be 130.

As to “CAAGCATCCTGTA (sugars lldlddddddldl, PS)”, the caspase activation (% of PBS control) stood at 142.

The sequence “GCAAGCATCCTGT (sugars l1 d1 l1 d7 l3, PS)” showed a caspase activation (% of PBS control) of 239.

Take “GCAAGCATCCTGT (sugars l1 d1 l1 d8 l2, PS)”: the caspase activation (% of PBS control) stood at 188.

On to “GCAAGCATCCTGT (sugars l1 d1 l1 d9 l1, PS)”, for which the caspase activation (% of PBS control) was found to be 165.

“GCAAGCATCCTGT (sugars l1 d1 l2 d6 l3, PS)” gave a caspase activation (% of PBS control) of 186.

In turn, “GCAAGCATCCTGT (sugars l1 d1 l2 d7 l2, PS)” returned a caspase activation (% of PBS control) of 220.

With “GCAAGCATCCTGT (sugars l1 d1 l2 d8 l1, PS)”, the caspase activation (% of PBS control) worked out at 191.

With “GCAAGCATCCTGT (sugars l1 d2 l1 d6 l3, PS)”, the caspase activation (% of PBS control) was 154.

Take “GCAAGCATCCTGT (sugars l1 d2 l1 d7 l2, PS)”: the caspase activation (% of PBS control) is 151.

The sequence “GCAAGCATCCTGT (sugars l1 d2 l1 d8 l1, PS)” had a caspase activation (% of PBS control) of 187.

In turn, “GCAAGCATCCTGT (sugars l1 d9 l1 d1 l1, PS)” came in with a caspase activation (% of PBS control) of 124.

Sequence GCAAGCATCCTGT (sugars l1 d9 l3, PS) gave a caspase activation (% of PBS control) of 147.

On to GCAAGCATCCTGT (sugars l1 d10 l2, PS), for which the caspase activation (% of PBS control) came to 112.

Regarding GCAAGCATCCTGT (sugars l1 d11 l1, PS), the caspase activation (% of PBS control) is 137.

In turn, “GCAAGCATCCTGT (sugars l2 d1 l1 d6 l3, PS)” displayed a caspase activation (% of PBS control) of 267.

With “GCAAGCATCCTGT (sugars l2 d1 l1 d7 l2, PS)”, the caspase activation (% of PBS control) was 319.

The sequence “GCAAGCATCCTGT (sugars l2 d1 l1 d8 l1, PS)” gave a caspase activation (% of PBS control) of 314.

In turn, “GCAAGCATCCTGT (sugars l2 d8 l1 d1 l1, PS)” yielded a caspase activation (% of PBS control) of 281.

For the sequence GCAAGCATCCTGT (sugars l2 d8 l3, PS), the caspase activation (% of PBS control) is 401.

The sequence GCAAGCATCCTGT (sugars l2 d9 l2, PS) had a caspase activation (% of PBS control) of 285.

GCAAGCATCCTGT (sugars l2 d10 l1, PS) showed a caspase activation (% of PBS control) of 279.

“GCAAGCATCCTGT (sugars l3 d7 l1 d1 l1, PS)” had a caspase activation (% of PBS control) of 426.

GCAAGCATCCTGT (sugars l3 d7 l3, PS) yielded a caspase activation (% of PBS control) of 600.

Turning to GCAAGCATCCTGT (sugars l3 d8 l2, PS), the caspase activation (% of PBS control) was 450.

As to GCAAGCATCCTGT (sugars l3 d9 l1, PS), the caspase activation (% of PBS control) worked out at 346.

Consider “GCAAGCATCCTGT (sugars l4 d6 l1 d1 l1, PS)”, for which the caspase activation (% of PBS control) is 305.

For GCAAGCATCCTGT (sugars l4 d6 l3, PS), the caspase activation (% of PBS control) was 340.

Consider GCAAGCATCCTGT (sugars l4 d7 l2, PS), for which the caspase activation (% of PBS control) amounted to 352.

The sequence GCAAGCATCCTGT (sugars l4 d8 l1, PS) showed a caspase activation (% of PBS control) of 344.

The sequence “GCAAGCATCCTGT (sugars lddlddddddldl, PS)” came in with a caspase activation (% of PBS control) of 109.

In turn, “GCAAGCATCCTGT (sugars ldldddddddldl, PS)” had a caspase activation (% of PBS control) of 181.

(Values after the OligoGym collection.)
